US10597388B2, “Pyridazinone herbicides” (FMC CORPORATION, priority 2014, dated 2020)

Columns and labels:
Assay type in all cases: in vivo
[1] = tested on: johnsongrass (Sorghum halepense); test: Test C greenhouse herbicide test, pre- and postemergence
Source text: (§1) Seeds of plant species selected from blackgrass (Alopecurus myosuroides), ryegrass, Italian (Italian ryegrass, Lolium multiflorum), wheat (winter wheat, Triticum aestivum), galium (catchweed bedstraw, Galium aparine), corn (Zea mays), large crabgrass, large (large crabgrass, Digitaria sanguinalis), foxtail, giant (giant foxtail, Setaria faberii), johnsongrass (Sorghum halepense), lambsquarters (Chenopodium album), morningglory (Ipomoea coccinea), nutsedge, yellow (yellow nutsedge, Cyperus esculentus), pigweed (Amaranthus retroflexus), ragweed (common ragweed, Ambrosia elatior), soybean (Glycine max), barnyardgrass (Echinochloa crus-galli), oilseed rape (Brassica napus), waterhemp (common waterhemp, Amaranthus rudis), and velvetleaf (Abutilon theophrasti) were planted into a blend of loam soil and sand and treated preemergence with test chemicals formulated in a non-phytotoxic solvent mixture which included a surfactant.
(§2) At the same time, plants selected from these crop and weed species and also chickweed (common chickweed, Stellaria media), kochia (Kochia scoparia), and oat, wild (wild oat, Avena fatua), were planted in pots containing Redi-Earth® planting medium (Scotts Company, 14111 Scottslawn Road, Marysville, Ohio 43041) comprising spaghnum peat moss, vermiculite, wetting agent and starter nutrients and treated with postemergence applications of test chemicals formulated in the same manner. Plants ranged in height from 2 to 18 cm (1- to 4-leaf stage) for postemergence treatments. Treated plants and controls were maintained in a greenhouse for 13 to 15 d, after which time all species were compared to controls and visually evaluated. Plant response ratings, summarized in Table C, are based on a scale of 0 to 100 where 0 is no effect and 100 is complete control. A dash (-) response means no test result.

[2] = tested on: waterhemp (common waterhemp, Amaranthus rudis); test: as above
Source text: as §1, §2

kochia (Kochia scoparia) = test: Test A greenhouse herbicide test, pre- and postemergence
Method in brief: (§3)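 Seeds in loam–sand blend received a preemergence directed soil spray; plants at 2–10 cm, one- to two-leaf stage, received postemergence sprays. Compounds in a non-phytotoxic solvent with surfactant. After about 10 d in a greenhouse, injury rated visually versus untreated controls on a 0–100 scale (100 = complete control).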

corn (Zea mays) = test: as above; details: Postemergence; for Plant response rating, Corn: 125 g ai/ha, visual rating after approx. 10 d, 0 to 100 scale (0 no effect, 100 complete control); for Corn plant response rating: 500 g ai/ha, 0 to 100 scale, 0 is no effect, 100 is complete control
Method in brief: as §3

[3] = tested on: pigweed (Amaranthus retroflexus); test: as above
Method in brief: as §3

[4] = tested on: ryegrass, Italian (Italian ryegrass, Lolium multiflorum); test: as above
Method in brief: as §3

[5] = tested on: ragweed (common ragweed, Ambrosia elatior); test: as above
Method in brief: as §3

[6] = tested on: wheat (Triticum aestivum); test: as above; details: Postemergence; for Plant response rating, Wheat: 125 g ai/ha, visual rating after approx. 10 d, 0 to 100 scale (0 no effect, 100 complete control); for Wheat plant response rating: 500 g ai/ha, 0 to 100 scale, 0 is no effect, 100 is complete control
Method in brief: as §3

[7] = tested on: foxtail, giant (giant foxtail, Setaria faberii); test: as above
Method in brief: as §3

[8] = tested on: barnyardgrass (Echinochloa crus-galli); test: as above
Method in brief: as §3

[9] = Postemergence, 31 g ai/ha, 0 to 100 scale (0 no effect, 100 complete control)
[10] = Postemergence, 125 g ai/ha, scale 0 to 100, 0 is no effect, 100 is complete control
[11] = Postemergence, 250 g ai/ha, scale 0 to 100, 0 no effect, 100 complete control, 13 to 15 d
[12] = Preemergence, 31 g ai/ha, scale 0 to 100, 0 is no effect, 100 is complete control
[13] = Preemergence, 62 g ai/ha, scale 0 to 100, 0 is no effect, 100 is complete control
[14] = Preemergence, 125 g ai/ha, scale 0 to 100, 0 is no effect, 100 is complete control
[15] = Preemergence, 250 g ai/ha, scale 0 to 100, 0 no effect, 100 complete control
[16] = postemergence, 62 g ai/ha, scale 0 to 100, 0 no effect, 100 complete control
[17] = Postemergence, 125 g ai/ha, visual rating after approx. 10 d, 0 to 100 scale (0 no effect, 100 complete control)
[18] = Postemergence, 500 g ai/ha, 0 to 100 scale, 0 is no effect, 100 is complete control
[19] = Preemergence, 125 g ai/ha, 0 to 100 scale where 0 is no effect and 100 is complete control
[20] = Preemergence, 500 g ai/ha, 0 to 100 scale, 0 no effect, 100 complete control

With `Cn1nc(Br)c(O)c(-c2cccc3ccccc23)c1=O` [Compound 20] the “Johnsongrass plant response rating” value [1, 9] was 5, the “Plant response rating, Johnsongrass” value [1, 10] was 10 and the “Plant response rating, Johnsongrass” value [1, 11] was 10. The “Plant response rating, Johnsongrass” value [1, 12] was 0, the “Plant response rating, Johnsongrass” value [1, 13] was 0 and the “Plant response rating, Johnsongrass” value [1, 14] was 0. For the same molecule, the “Johnsongrass plant response rating” value [1, 15] was 10, the “Johnsongrass plant response rating” value [1, 16] was 10 and the “Waterhemp plant response rating” value [2, 9] was 70. For the same molecule, the “Plant response rating, Waterhemp” value [2, 10] was 60, the “Plant response rating, Waterhemp” value [2, 11] was 90 and the “Plant response rating, Waterhemp” value [2, 13] was 100. For the same molecule, the “Plant response rating, Waterhemp” value [2, 14] was 100, the “Waterhemp plant response rating” value [2, 15] was 100 and the “Waterhemp plant response rating” value [2, 16] was 40. The “Plant response rating, Kochia” value (kochia (Kochia scoparia); [17]) was 90, the “Kochia plant response rating” value (kochia (Kochia scoparia); [18]) was 100 and the “Kochia plant response rating” value (kochia (Kochia scoparia); [19]) was 80. The “Plant response rating, Kochia” value (kochia (Kochia scoparia); [20]) was 100, the “Plant response rating, Corn” value (corn (Zea mays)) was 20 and the “Corn plant response rating” value (corn (Zea mays)) was 30. For the same molecule, the “Plant response rating, Pigweed” value [3, 17] was 100, the “Pigweed plant response rating” value [3, 18] was 100 and the “Pigweed plant response rating” value [3, 19] was 80. The “Plant response rating, Pigweed” value [3, 20] was 100, the “Plant response rating, Ryegrass, Italian” value [4, 17] was 100 and the “Ryegrass, Italian plant response rating” value [4, 18] was 100. The “Ryegrass, Italian plant response rating” value [4, 19] was 90, the “Plant response rating, Ryegrass, Italian” value [4, 20] was 100 and the “Plant response rating, Ragweed” value [5, 17] was 80. For the same molecule, the “Ragweed plant response rating” value [5, 18] was 100, the “Ragweed plant response rating” value [5, 19] was 30 and the “Plant response rating, Ragweed” value [5, 20] was 90. The “Plant response rating, Wheat” value [6] was 20, the “Wheat plant response rating” value [6] was 30 and the “Plant response rating, Foxtail, Giant” value [7, 17] was 30. The “Foxtail, Giant plant response rating” value [7, 18] was 100, the “Foxtail, Giant plant response rating” value [7, 19] was 40 and the “Plant response rating, Foxtail, Giant” value [7, 20] was 90. The “Plant response rating, Barnyardgrass” value [8, 17] was 30, the “Barnyardgrass plant response rating” value [8, 18] was 100 and the “Barnyardgrass plant response rating” value [8, 19] was 30. The “Plant response rating, Barnyardgrass” value [8, 20] was 90.
`Cc1cc(C)c2ccccc2c1-c1c(O)c(C)nn(C)c1=O` [Compound 21] was tested, and the “Johnsongrass plant response rating” value [1, 9] was 10, the “Plant response rating, Johnsongrass” value [1, 10] was 20 and the “Plant response rating, Johnsongrass” value [1, 11] was 35. The “Plant response rating, Johnsongrass” value [1, 12] was 10, the “Plant response rating, Johnsongrass” value [1, 13] was 10 and the “Plant response rating, Johnsongrass” value [1, 14] was 35. For the same molecule, the “Johnsongrass plant response rating” value [1, 15] was 50, the “Johnsongrass plant response rating” value [1, 16] was 20 and the “Waterhemp plant response rating” value [2, 9] was 40. For the same molecule, the “Plant response rating, Waterhemp” value [2, 10] was 85, the “Plant response rating, Waterhemp” value [2, 11] was 80 and the “Plant response rating, Waterhemp” value [2, 13] was 95. The “Plant response rating, Waterhemp” value [2, 14] was 100, the “Waterhemp plant response rating” value [2, 15] was 100 and the “Waterhemp plant response rating” value [2, 16] was 75. The “Plant response rating, Kochia” value (kochia (Kochia scoparia); [17]) was 100, the “Kochia plant response rating” value (kochia (Kochia scoparia); [18]) was 100 and the “Kochia plant response rating” value (kochia (Kochia scoparia); [19]) was 30. For the same molecule, the “Plant response rating, Kochia” value (kochia (Kochia scoparia); [20]) was 90, the “Plant response rating, Corn” value (corn (Zea mays)) was 50 and the “Corn plant response rating” value (corn (Zea mays)) was 60. For the same molecule, the “Plant response rating, Pigweed” value [3, 17] was 100, the “Pigweed plant response rating” value [3, 18] was 100 and the “Pigweed plant response rating” value [3, 19] was 100. The “Plant response rating, Pigweed” value [3, 20] was 100, the “Plant response rating, Ryegrass, Italian” value [4, 17] was 100 and the “Ryegrass, Italian plant response rating” value [4, 18] was 100. For the same molecule, the “Ryegrass, Italian plant response rating” value [4, 19] was 100, the “Plant response rating, Ryegrass, Italian” value [4, 20] was 100 and the “Plant response rating, Ragweed” value [5, 17] was 100. For the same molecule, the “Ragweed plant response rating” value [5, 18] was 100, the “Ragweed plant response rating” value [5, 19] was 100 and the “Plant response rating, Ragweed” value [5, 20] was 100. The “Plant response rating, Wheat” value [6] was 10, the “Wheat plant response rating” value [6] was 60 and the “Plant response rating, Foxtail, Giant” value [7, 17] was 100. The “Foxtail, Giant plant response rating” value [7, 18] was 100, the “Foxtail, Giant plant response rating” value [7, 19] was 90 and the “Plant response rating, Foxtail, Giant” value [7, 20] was 100. The “Plant response rating, Barnyardgrass” value [8, 17] was 90, the “Barnyardgrass plant response rating” value [8, 18] was 90 and the “Barnyardgrass plant response rating” value [8, 19] was 90. The “Plant response rating, Barnyardgrass” value [8, 20] was 100.
